Earlier results in patent publication US20110212474A1, “ABNORMAL ALTERATIONS OF PKC ISOZYMES PROCESSING IN ALZHEIMER'S DISEASE PERIPHERAL CELLS” (BLANCHETTE ROCKEFELLER NEUROSCIENCES INSTITUTE, priority 2009, published 2011).

How the values were obtained:
Aβ (1-42) = conditions: transgenic mice with human AD genes
PKC = conditions: postischemic/hypoxic treatment
PKC-γ = conditions: AD fibroblasts, Aβ (1-40)
PKC-α = conditions: non-AD (AC) fibroblasts, nanomolar concentrations of Aβ (1-40)

Compound | effect on Aβ (1-42) levels in the brains (Aβ (1-42)) | effect on ischemia-induced deficits in synaptogenesis, neurotrophic activity, and spatial learning and memory (PKC) | reduction of PKC-γ immunoreactivity (PKC-γ) [%] | decrease in PKC-α immunoreactivity (PKC-α) [%]
CCC/C=C/C=C/C(=O)O[C@H]1/C(=C/C(=O)OC)C[C@H]2C[C@H]([C@@H](C)O)OC(=O)C[C@H](O)C[C@@H]3C[C@H](OC(C)=O)C(C)(C)[C@](O)(C[C@@H]4C/C(=C/C(=O)OC)C[C@H](/C=C/C(C)(C)[C@]1(O)O2)O4)O3 [bryostatin-1] | reduce Aβ (1-42) levels | effectively rescued ischemia-induced deficits |  | 
Aβ (1-40): Aβ peptide, "short form," 40 amino acids in length, from Amyloid Precursor Protein |  |  | 70 | 75
